# Experimental data taken from publication PMC9481570, “A small molecule antagonist of SMN disrupts the interaction between SMN and RNAP II” (Nature Communications, 2022).
# How the values were obtained:
# FXR1 = biological target: T1, FXR1 (Homo sapiens, UniProt P51114); test: ITC binding to FXR1
# T1 construct: FXR1 (aa 2–132); His (N, cleaved yes); made in house; host or cells: E. coli BL21 (DE3) Codon plus RIL
# Text: (§1) The coding DNA fragments of following Tudor domains were cloned into pET28-MHL vector: SMN (aa 82–147), UHRF1 (aa 126–285), SMNDC1 (aa 53–130), TDRD3 (aa 554–611), SND1 (aa 650–910), TDRD2 (aa 327–420), FXR1 (aa 2–132), PHF1 (aa 28–87), SGF29 (aa 115–293), JMJD2A (aa 897–1101), 53BP1 (aa 1483–1606), SETDB1 (aa 190–410), LBR (aa 1–67), ZGPAT (aa 120–271). The coding regions of chromodomain of CBX7 (aa 8–62), PWWP domain of DNMT3A (aa 275–417), WD40 repeats of WDR5 (aa 24–334) and CW domain of ZCWPW2 (aa 21–78) were also subcloned into pET28-MHL vector to generate N-terminally His-tagged fusion protein. The MBT repeats of L3MBTL1 (aa 200–522) and L3MBTL2 (aa 170–625) were subcloned into pET28GST-LIC vector to generate N-terminally GST-His-tagged fusion protein. All the plasmids were generated by ligase independent cloning (Vazyme Biotech, C112 or ABclonal Technology, RK21020). […] The molecular weight of all protein samples was measured by mass spectrometry.
# (§2) For the ITC measurement, the concentrated proteins were diluted into 20 mM Tris-HCl, pH 7.5, 150 mM NaCl (ITC buffer); the lyophilized compounds were dissolved in the same buffer, and the pH value was adjusted by adding 2 M NaOH or 2 M HCl. […] Compound concentrations were calculated from the mass and the volume of the solvent. […]
# SGF29 = biological target: T2, SGF29 (Homo sapiens, UniProt Q96ES7); test: ITC binding to SGF29; conditions: Fig. 1c
# T2 construct: SGF29 (aa 115–293); His (N, cleaved yes); made in house; host or cells: E. coli BL21 (DE3) Codon plus RIL
# T2 sequence (Q96ES7 115-293): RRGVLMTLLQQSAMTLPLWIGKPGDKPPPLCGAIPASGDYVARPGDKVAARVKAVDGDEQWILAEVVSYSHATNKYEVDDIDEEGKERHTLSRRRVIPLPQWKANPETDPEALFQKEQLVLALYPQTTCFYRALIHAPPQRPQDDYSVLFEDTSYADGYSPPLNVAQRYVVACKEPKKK
# Text: as §1, §2
# ZCWPW2 (CW) = biological target: T3, ZCWPW2 (CW) (Homo sapiens, UniProt Q504Y3); test: ITC binding to CW domain of ZCWPW2; conditions: Fig. 1c
# T3 construct: ZCWPW2 (aa 21–78); His (N, cleaved yes); made in house; host or cells: E. coli BL21 (DE3) Codon plus RIL
# T3 sequence (Q504Y3 21-78): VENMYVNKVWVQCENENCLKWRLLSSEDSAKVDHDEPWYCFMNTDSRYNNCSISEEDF
# Text: as §1, §2
# SMN_N132A = biological target: T4, SMN_N132A (Homo sapiens, UniProt Q16637, N132A); test: ITC binding to SMN Tudor mutant N132A; conditions: Fig. 3d
# T4 construct: cloned into pET28-MHL vector: SMN (aa 82–147); His (N, cleaved yes); made in house; host or cells: E. coli BL21 (DE3) Codon plus RIL
# T4 sequence (Q16637 82-147 N132A): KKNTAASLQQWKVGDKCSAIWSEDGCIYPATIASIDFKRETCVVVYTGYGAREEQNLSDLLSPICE
# Text: as §1, §2
# [1] = tested on: UHRF1_TTD R296-binding pocket mutants; test: ITC binding to UHRF1 TTD R296-binding pocket mutants; conditions: Supplementary Fig. 9e
# Text: as §1, §2
# T1 sequence (P51114 2-132): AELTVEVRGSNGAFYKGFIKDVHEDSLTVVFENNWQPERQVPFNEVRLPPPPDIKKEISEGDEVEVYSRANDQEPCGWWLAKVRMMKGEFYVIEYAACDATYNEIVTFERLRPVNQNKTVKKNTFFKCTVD
structure (smiles),measurement,setting,value
"Cn1c2c(c(=N)c3c1CCC3)CCC2 [Compound 1, 4-methyl-2,3,4,5,6,7-hexahydrodicyclopenta[b,e]pyridin-8(1H)-imine]",Kd,"FXR1; ITC, Fig. 1c",> 100 µM
same,"ITC binding curve, FXR1 (in words)",FXR1; Supplementary Fig. 2e,Weak binding
same,Kd,SGF29,> 244 µM
same,Kd,ZCWPW2 (CW),> 244 µM
same,Kd,SMN_N132A,70 ± 6 µM
same,binding to UHRF1_TTD R296-binding pocket mutants,[1],totally disrupted
